The values below are quoted from earlier work in US12110270B2, “Systems and methods for generation of hyperpolarized materials” (NVISION IMAGING TECHNOLOGIES GMBH, priority 2021, dated 2024).

Each structure is given as a SMILES string. Where two headings read alike, the source gives them in different places.

For the compound `CC(=O)O` [acetic acid], the “maximal mole fraction in n-heptane” value was 0.935 (14.8° C.) and 0.02 (−29.2° C.).
